The results in this text go back to ChEMBL document CHEMBL4414652, “Identification of Methionine Aminopeptidase-2 (MetAP-2) Inhibitor M8891: A Clinical Compound for the Treatment of Cancer” (J Med Chem, 2019).

Values after ≈ are worked out from the molar mass of the structure shown.

Data set [1] concerns the target Methionine aminopeptidase 1 (Homo sapiens, UniProt P53582).
Description: Inhibition of N-terminal MetAP1 (unknown origin)
Data set [2] is described as follows: in vivo. The following applies: mouse, faeces, iv.
Description: Drug recovery in iv dosed mouse feces
Data set [3] is described as follows: in vitro. The following applies: mouse, plasma.
Description: Protein binding in mouse plasma assessed as unbound fraction
A further data set in a line: physchem. The following applies: PBS buffer.
The nature of data set [4]: in vitro. The following applies: human, plasma.
Description: Protein binding in human plasma assessed as unbound fraction
The conditions of data set [5]: mouse, in vivo, iv, 1 mg/kg.
The nature of data set [6]: Drug recovery in dog at 0.2 mg/kg, iv measured up to 72 hrs. The following applies: in vivo. The data set is classed as ADME, organism-based, Canis lupus familiaris.
Data set [7] in a line: in vivo. The following applies: mouse, iv.
Description: Half life in iv dosed mouse
Data set [8] is described as follows: Drug recovery in monkey at 0.2 mg/kg, iv measured up to 72 hrs. The data set is classed as ADME, organism-based, Macaca mulatta. The following applies: rhesus monkey, in vivo.

Description for CAKI-1: Antitumour activity against human Caki1 cells xenografted in nude CD-1 mouse assessed as tumor growth at 25 mg/kg, po BID for 36 days relative to control
Description for U-87 MG: Antitumour activity against human U87MG cells xenografted in nude CD-1 mouse assessed as tumor growth at 20 mg/kg, po administered daily for 14 days relative to control
Description for physchem: Solubility of compound in PBS buffer

As for `Cc1cc2cc(N3CC[C@](O)(C(=O)NCc4cc(F)cc(Cl)c4)C3=O)ccc2[nH]1`, in data set [1], the IC50 (usually the concentration needed to halve the response being measured) is > 10 µM.

Take `O=C1CCc2cc(N3CC[C@](O)(C(=O)NCc4cccc(F)c4F)C3=O)ccc2N1`: the IC50 in [1] was > 10 µM.

As to `O=C1CCc2cc(N3CC[C@](O)(C(=O)NCc4ccc(F)c(Cl)c4F)C3=O)ccc2N1`, the IC50 in data set [1] was > 10 µM.

For `O=C1CCc2cc(N3CC[C@](O)(C(=O)NCc4cc(F)cc(F)c4)C3=O)ccc2N1`, the IC50 in data set [1] was > 10 µM.

With `O=C1CCc2cc(N3CC[C@](O)(C(=O)NCc4cc(F)cc(Cl)c4)C3=O)cc(F)c2N1`, the IC50 in [1] is > 10 µM.

`O=C1CCc2cc(N3CC[C@](O)(C(=O)NCc4c(F)cccc4F)C3=O)ccc2N1`: the IC50 in [1] was > 10 µM.

Take `O=C(NCc1cc(F)cc(F)c1)[C@@]1(O)CCN(c2ccc3[nH]ncc3c2)C1=O`: in the data set “in vivo [2]”, the dose excreted is < 1%. Further, the IC50 in [1] is > 10 µM.

On to `O=C1CCc2cc(N3CC[C@](O)(C(=O)NCc4cc(F)cc(F)c4F)C3=O)ccc2N1`, for which, in data set [1], the IC50 was > 10 µM.

For the molecule `O=C1CCc2cc(N3CC[C@](O)(C(=O)NCc4cc(F)c(F)c(F)c4)C3=O)ccc2N1`, the IC50 in data set [1] was > 10 µM.

Regarding `NCCCNC(=O)c1cc2cc(N3CC[C@](O)(C(=O)NCc4cc(F)cc(Cl)c4)C3=O)ccc2[nH]1`, in data set [1], the IC50 was > 10 µM.

In the case of `O=C1CCc2cc(N3CC[C@](O)(C(=O)NCc4cc(F)ccc4Cl)C3=O)ccc2N1`, in data set [1], the IC50 was > 10 µM.

Regarding `O=C(NCc1cc(F)cc(Cl)c1)[C@@]1(O)CCN(c2ccc3[nH]ccc3c2)C1=O`, the dose excreted in the data set “in vivo [2]” is < 1%. For the same molecule, in [1], the IC50 was > 10 µM.

Turning to `CS(=O)(=O)Nc1cccc(N2CC[C@](O)(C(=O)NCc3cc(F)cc(Cl)c3)C2=O)c1`, the IC50 in [1] was > 10 µM.

With `O=C1CCc2cc(N3CC[C@](O)(C(=O)NCc4c(F)cccc4Cl)C3=O)ccc2N1`, the concentration for half-maximal inhibition (IC50) in data set [1] is > 10 µM.

Molecule `O=C(NCc1cc(F)cc(Cl)c1)[C@@]1(O)CCN(c2cnc3[nH]cc(Cl)c3c2)C1=O` had a dose excreted in “in vivo [2]” of 1.5%. Also, in data set [1], the IC50 was > 10 µM.

Take `O=C1CCc2cc(N3CC[C@](O)(C(=O)NCc4cc(F)cc(Cl)c4F)C3=O)ccc2N1`: the IC50 in data set [1] was > 10 µM.

As for `O=C(NCc1cc(F)cc(F)c1)[C@@]1(O)CCN(c2cnc3[nH]cc(Cl)c3c2)C1=O`, the dose excreted in the data set “in vivo [2]” was determined as 2.7%. The IC50 in [1] was > 10 µM.

In the case of `O=C1CCc2cc(N3CC[C@](O)(C(=O)NCc4c(F)ccc(F)c4F)C3=O)ccc2N1`, the half-inhibitory concentration (IC50) in data set [1] was > 10 µM.

On to `O=C1CCc2cc(N3CC[C@](O)(C(=O)NCc4cc(F)cc(Cl)c4)C3=O)ccc2N1`, for which the dose excreted in the data set “in vivo [2]” stood at 23%. For the same molecule, the figures for the fraction unbound in “in vitro [3]” and in “in vitro [4]” were 0.017 and 0.023, respectively. Besides, the solubility (commonly the dissolved amount per volume that the medium holds) in “physchem” came out at 90 µg/mL (≈ 208 µM). Moreover, the AUC (as a rule, the area under the concentration-time curve, a measure of exposure) in [5] came out at 19 ng·h/mL. The Drug recovery entry in [6] and in [8] was “Active” throughout. In the data set with U-87 MG, the T/C (as a rule, the ratio of treated to control) is given as 45%. Besides, the half-life – broadly, the time in which the quantity being followed falls by half – in the data set “in vivo [7]” is 3 h. Besides, the IC50 in [1] is > 10 µM.

For the molecule `CN1C(=O)CCc2cc(N3CC[C@](O)(C(=O)NCc4cc(F)cc(Cl)c4)C3=O)ccc21`, in data set [1], the concentration for half-maximal inhibition (IC50) is > 10 µM.

Take `O=C(NCc1cc(F)cc(Cl)c1)[C@@]1(O)CCN(c2ccc3[nH]ncc3c2)C1=O`: the dose excreted in “in vivo [2]” was < 1%. Further, the IC50 in data set [1] was > 10 µM.

On to `O=C(NCc1cc(F)cc(Cl)c1)[C@@]1(O)CCN(c2cnc3[nH]ccc3c2)C1=O`, for which the dose excreted in the data set “in vivo [2]” was found to be 2.3%. In the data set on U-87 MG, the T/C is listed as 45%. In addition, the IC50 in [1] was > 10 µM.

On to `O=C(NCc1cc(F)cc(F)c1)[C@@]1(O)CCN(c2cnc3[nH]ccc3c2)C1=O`, for which the dose excreted in the data set “in vivo [2]” is < 1%. The T/C with CAKI-1 was 39%. Further, the IC50 in data set [1] is > 10 µM.

For `O=C1CCc2cc(N3CC[C@](O)(C(=O)NCc4cccc(Cl)c4F)C3=O)ccc2N1`, the IC50 in data set [1] is > 10 µM.

For the molecule `CCNC(=O)c1cc2cc(N3CC[C@](O)(C(=O)NCc4cc(F)cc(Cl)c4)C3=O)ccc2[nH]1`, the IC50 in data set [1] is > 10 µM.
